Patent US8263595B2, “Triazolopyridine compounds and their use as ask inhibitors” (Merck Serono SA, priority 2007, dated 2012)
Counter-ions that a name gives are not always drawn. Values belong to the molecule of their own block, whether it stands above or below them.

Molecular target: T1, human recombinant ASK1 (Homo sapiens, UniProt Q99683)
T1 sequence (Q99683 1-1374): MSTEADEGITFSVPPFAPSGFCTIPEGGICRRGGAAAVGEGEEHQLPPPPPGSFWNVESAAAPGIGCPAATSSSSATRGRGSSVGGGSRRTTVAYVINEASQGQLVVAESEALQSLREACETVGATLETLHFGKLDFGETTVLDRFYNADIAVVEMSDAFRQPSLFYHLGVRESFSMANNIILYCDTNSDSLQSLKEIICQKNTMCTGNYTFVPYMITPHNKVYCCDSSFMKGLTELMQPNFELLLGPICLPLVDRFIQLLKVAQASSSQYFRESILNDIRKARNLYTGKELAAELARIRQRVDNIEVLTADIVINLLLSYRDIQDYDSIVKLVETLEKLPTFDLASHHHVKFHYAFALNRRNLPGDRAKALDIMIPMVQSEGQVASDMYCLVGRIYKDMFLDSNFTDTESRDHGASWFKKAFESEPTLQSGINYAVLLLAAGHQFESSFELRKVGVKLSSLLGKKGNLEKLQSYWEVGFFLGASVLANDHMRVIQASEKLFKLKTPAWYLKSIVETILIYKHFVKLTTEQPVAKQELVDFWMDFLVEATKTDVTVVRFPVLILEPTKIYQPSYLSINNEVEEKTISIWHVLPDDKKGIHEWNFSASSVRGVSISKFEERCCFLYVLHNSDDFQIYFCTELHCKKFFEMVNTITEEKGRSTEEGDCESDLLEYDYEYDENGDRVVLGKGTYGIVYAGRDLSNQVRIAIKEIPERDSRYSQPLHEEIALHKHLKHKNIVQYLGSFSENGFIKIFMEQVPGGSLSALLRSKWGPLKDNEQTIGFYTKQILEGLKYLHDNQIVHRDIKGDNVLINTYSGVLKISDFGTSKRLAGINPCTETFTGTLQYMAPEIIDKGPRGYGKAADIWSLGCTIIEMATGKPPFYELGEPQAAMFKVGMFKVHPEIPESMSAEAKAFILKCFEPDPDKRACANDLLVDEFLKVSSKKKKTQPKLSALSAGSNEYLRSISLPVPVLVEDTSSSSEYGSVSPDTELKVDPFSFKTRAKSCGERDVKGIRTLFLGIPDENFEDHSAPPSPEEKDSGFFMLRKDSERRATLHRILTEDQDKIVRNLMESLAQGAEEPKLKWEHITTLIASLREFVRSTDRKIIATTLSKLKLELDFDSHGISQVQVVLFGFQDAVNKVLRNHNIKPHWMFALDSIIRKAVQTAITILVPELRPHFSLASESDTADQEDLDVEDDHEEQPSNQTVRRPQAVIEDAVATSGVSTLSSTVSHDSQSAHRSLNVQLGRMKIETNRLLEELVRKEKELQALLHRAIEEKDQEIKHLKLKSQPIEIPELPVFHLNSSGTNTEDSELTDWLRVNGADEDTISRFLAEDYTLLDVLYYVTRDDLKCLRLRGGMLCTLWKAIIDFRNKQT
Test: Enzyme inhibition assay (in vitro ASK1 assay), luciferase-based measurement of remaining ATP
Format: biochemical
Settings: human recombinant ASK1, MBP and ATP as substrates, 180 minutes at 30° C.; triplicates on at least 2 separate occasions
Experimental: Assays were performed in a 384 well plate (Corning, #3654) format, using the human recombinant ASK1 as an enzyme and MBP (myelin basic protein, Upstate/Millipore, #13-104) with ATP as substrates. Assay read out was the measurement of the amount of ATP remaining after stopping the reaction, using a luciferase-based kit from Cambrex.
Compounds to be tested were dissolved in 100% DMSO at a concentration of 10 mM. Subsequent dilutions were performed in 100% DMSO using a Biomek FX Workstation. 5 μL of diluted compound or vehicle (6% DMSO) was distributed to a 384 well plate. 5 μL of substrates (ATP 7.5 μM, MBP 450 ng/μL) diluted in ASK1 buffer (20 mM Tris HCl pH 7.4, 0.001% Brij35, 0.01% BSA, 5 mM MgCl2, 1 mM DL-Dithiothreitol) were added, followed by 5 μL at of human recombinant ASK1 enzyme (22.5 ng/mL) diluted in ASK1 buffer in order to start the reaction. The reaction ran for 180 minutes at 30° C. before the addition of 5 μL of stop solution (Cambrex, #LT23-231). 10 μL of Pklight ATP detection reagent (Cambrex #LT23-233) were added. After 120 min of incubation, luminescence was measured on a Perkin-Elmer Victor 2 spectrofluorimeter. The percentage of inhibition relative to the fluorescence observed in the presence of solvent (1% DMSO) alone was determined. The IC50 values for inhibition were determined in triplicates on at least 2 separate occasions.

Compound: O=C(Nc1nc2cccc(-c3ccoc3)n2n1)c1ccc(C(F)(F)F)cc1 [Example 3, N-[5-(3-furyl)[1,2,4]triazolo[1,5-a]pyridin-2-yl]-4-(trifluoromethyl)benzamide]
IC50: 8 ± 0.4 µM

Compound: COCC(=O)Nc1nc2cccc(-c3ccoc3)n2n1 [Example 5, N-[5-(3-furyl)[1,2,4]triazolo[1,5-a]pyridin-2-yl]-2-methoxyacetamide]
IC50: 17 ± 5 µM

Compound: COC(=O)CCC(=O)Nc1nc2cccc(-c3ccoc3)n2n1 [Example 7, methyl 4-{[5-(3-furyl)[1,2,4]triazolo[1,5-a]pyridin-2-yl]amino}-4-oxobutanoate]
IC50: 7 ± 1 µM

Compound: O=C(Nc1nc2cccc(-c3ccc[nH]3)n2n1)C1CCCC1 [Example 10, N-[5-(1H-pyrrol-2-yl)[1,2,4]triazolo[1,5-a]pyridin-2-yl]cyclopentanecarboxamide]
IC50: 16 ± 4 µM

Compound: O=C(Nc1nc2cccc(-c3cn[nH]c3)n2n1)c1ccccc1 [Example 12, N-[5-(1H-pyrazol-4-yl)[1,2,4]triazolo[1,5-a]pyridin-2-yl]benzamide]
IC50: 14.8 ± 0.2 µM

Compound: O=C(Nc1nc2cccc(NCc3ccco3)n2n1)c1ccccc1 [Example 44, N-{5-[(2-furylmethyl)amino][1,2,4]triazolo[1,5-a]pyridin-2-yl}benzamide]
IC50: 6.9 ± 0.05 µM

Compound: O=C(Nc1nc2cccc(NCC3CCCO3)n2n1)c1ccccc1 (centres unmarked) [Example 45, N-{5-[(tetrahydrofuran-2-ylmethyl)amino][1,2,4]triazolo[1,5-a]pyridin-2-yl}benzamide]
IC50: 3.38 µM

Compound: CCC(CO)Nc1cccc2nc(NC(=O)c3ccccc3)nn12 (centres unmarked) [Example 50, N-(5-{[1-(hydroxymethyl)propyl]amino}[1,2,4]triazolo[1,5-a]pyridin-2-yl)benzamide]
IC50: 8 ± 1 µM

Compound: CC(C)(C)OC(=O)NCc1ccc(C(=O)Nc2nc3cccc(-c4ccoc4)n3n2)cc1 [Example 52, tert-butyl[4-({[5-(3-furyl)[1,2,4]triazolo[1,5-a]pyridin-2-yl]amino}carbonyl)benzyl]carbamate]
IC50: 1.7 ± 0.2 µM

Compound: COc1cc(-c2ccc3nc(NC(=O)c4ccccc4)nn3c2)ccc1O [Example 56, N-[6-(4-hydroxy-3-methoxyphenyl)[1,2,4]triazolo[1,5-a]pyridin-2-yl]benzamide hydrochloride]
IC50: 0.99 ± 0.04 µM

Compound: Cc1ccc(CNc2cccc3nc(NC(=O)c4cccnc4)nn23)o1 [Example 63, N-(5-{[(5-methyl-2-furyl)methyl]amino}[1,2,4]triazolo[1,5-a]pyridin-2-yl)nicotinamide]
IC50: 9.86 µM

Compound: CN1CCC(Nc2cccc3nc(NC(=O)c4ccccc4)nn23)CC1 [Example 72, N-{5-[(1-methylpiperidin-4-yl)amino][1,2,4]triazolo[1,5-a]pyridin-2-yl}benzamide]
IC50: 4.08 µM

Compound: O=C(Nc1nc2cccc(NC3CCCOC3)n2n1)c1ccccc1 (centres unmarked) [Example 81, N-[5-(tetrahydro-2H-pyran-3-ylamino)[1,2,4]triazolo[1,5-a]pyridin-2-yl]benzamide]
IC50: 1.66 ± 0.05 µM

Compound: O=C(Nc1nc2cccc(SC3CCCCC3)n2n1)c1cccnc1 [Example 83, N-[5-(cyclohexylthio)[1,2,4]triazolo[1,5-a]pyridin-2-yl]nicotinamide]
IC50: 1.9 ± 0.2 µM

Compound: CN(C)Cc1ccc(C(=O)Nc2nc3cccc(NC4CCCCC4)n3n2)cc1 [Example 87, N-[5-(cyclohexylamino)[1,2,4]triazolo[1,5-a]pyridin-2-yl]-4-[(dimethylamino)methyl]benzamide]
IC50: 5.96 µM

Compound: O=C(Nc1nc2cc(C(F)(F)F)cc(NCC3CC3)n2n1)c1cccnc1 [Example 89, N-[5-[(cyclopropylmethyl)amino]-7-(trifluoromethyl)[1,2,4]triazolo[1,5-a]pyridin-2-yl]nicotinamide]
IC50: 0.46 ± 0.05 µM

Compound: COC(=O)[C@H]1CC[C@H](Nc2cc(C(F)(F)F)cc3nc(NC(=O)c4cccnc4)nn23)CC1 [Example 90, methyl trans-4-{[2-[(pyridin-3-ylcarbonyl)amino]-7-(trifluoromethyl)[1,2,4]triazolo[1,5-a]pyridin-5-yl]amino}cyclohexanecarboxylate]
IC50: 0.7 ± 0.1 µM

Compound: CC(C)=Cc1cccc2nc(NC(=O)c3cccnc3)nn12 [Example 94, N-[5-(2-methylprop-1-en-1-yl)[1,2,4]triazolo[1,5-a]pyridin-2-yl]nicotinamide dihydrochloride]
IC50: 5.9 µM

Compound: O=C(CCNC(=O)c1ccccc1)Nc1nc2cccc(-c3ccoc3)n2n1 [Example 96, N-(3-{[5-(3-furyl)[1,2,4]triazolo[1,5-a]pyridin-2-yl]amino}-3-oxopropyl)benzamide]
IC50: 0.99 ± 0.11 µM

Compound: O=C(Nc1nc2cccc(NCC3CCCCC3)n2n1)c1cccnc1 [Example 115, N-{5-[(cyclohexylmethyl)amino][1,2,4]triazolo[1,5-a]pyridin-2-yl}nicotinamide]
IC50: 0.519 ± 0.113 µM

These reach a lower IC50. Values come first.

IC50: 0.18 ± 0.02 µM
Compound: O=C(Nc1nc2cccc(NC3CCCCCC3)n2n1)c1cccnc1 [Example 61, N-[5-(cycloheptylamino)[1,2,4]triazolo[1,5-a]pyridin-2-yl]nicotinamide dihydrochloride]

IC50: 0.26 ± 0.01 µM
Compound: COc1cc(-c2ccc3nc(NC(=O)c4cccnc4)nn3c2)ccc1O [Example 66, N-[6-(4-hydroxy-3-methoxyphenyl)[1,2,4]triazolo[1,5-a]pyridin-2-yl]nicotinamide hydrochloride]

IC50: 0.12 ± 0.01 µM
Compound: O=C(Nc1nc2cc(C(F)(F)F)cc(NC3CCCCC3)n2n1)c1cccnc1 [Example 74, N-[5-(cyclohexylamino)-7-(trifluoromethyl)[1,2,4]triazolo[1,5-a]pyridin-2-yl]nicotinamide]

IC50: 0.11 ± 0.05 µM
Compound: O=C(Nc1nc2cccc(NC3CCCCC3)n2n1)c1ccc(N2CCOCC2)nc1 [Example 86, N-[5-(cyclohexylamino)[1,2,4]triazolo[1,5-a]pyridin-2-yl]-6-morpholin-4-ylnicotinamide]

IC50: 0.042 ± 0.007 µM
Compound: CC(C)Nc1cc(C(F)(F)F)cc2nc(NC(=O)c3cccnc3)nn12 [Example 99, N-[5-(isopropylamino)-7-(trifluoromethyl)[1,2,4]triazolo[1,5-a]pyridin-2-yl]nicotinamide]

IC50: 0.056 ± 0.008 µM
Compound: CCC(C)Nc1cc(C(F)(F)F)cc2nc(NC(=O)c3cccnc3)nn12 (centres unmarked) [Example 100, N-[5-(sec-butylamino)-7-(trifluoromethyl)[1,2,4]triazolo[1,5-a]pyridin-2-yl]nicotinamide]

IC50: 0.087 ± 0.006 µM
Compound: O=C(Nc1nc2cc(Cl)cc(NC3CCC3)n2n1)c1cccnc1 [Example 118, N-[7-chloro-5-(cyclobutylamino)[1,2,4]triazolo[1,5-a]pyridin-2-yl]nicotinamide]

IC50: 0.067 ± 0.012 µM
Compound: O=C(Nc1nc2cc(Cl)cc(NC3CCCCC3)n2n1)c1cccnc1 [Example 120, N-[7-chloro-5-(cyclohexylamino)[1,2,4]triazolo[1,5-a]pyridin-2-yl]nicotinamide]

IC50: 0.197 ± 0.006 µM
Compound: O=C(Nc1nc2cc(C(F)(F)F)cc(NCCCO)n2n1)c1cccnc1 [Example 124, N-[5-[(3-hydroxypropyl)amino]-7-(trifluoromethyl)[1,2,4]triazolo[1,5-a]pyridin-2-yl]nicotinamide]
